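Where inhibition never reached the appropriate level, the endpoint shown equals the highest concentration tested. Otherwise, values were interpolated linearly from a five-concentration, 48-hour dose response in 96-well plates. At the GI50, growth is halved.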 Active and inactive are the calls of the source. No stated cut-off is given here; in the data, active = GI50 up to about 1.1 µM and inactive = higher.
Key:
Experiment in all cases: NCI tumour cell line growth inhibition, 48 h
[1] = tested on: UACC-257
[2] = tested on: SN12C
[3] = tested on: SF-295
[4] = tested on: SNB-19
[5] = tested on: OVCAR-5
[6] = tested on: U-251
[7] = tested on: KM12
[8] = tested on: SF-268
[9] = tested on: SW-620
[10] = tested on: OVCAR-8
[11] = tested on: A549
[12] = tested on: A498
[13] = tested on: M14
[14] = tested on: EKVX
[15] = tested on: HOP-62
[16] = tested on: 786-0
[17] = tested on: LXFL 529
[18] = tested on: HOP-92
[19] = tested on: OVCAR-4
[20] = tested on: MDA-MB-435

SMILES | GI50 [1] | GI50 [2] | GI50 [3] | GI50 [4] | GI50 [5] | GI50 [6] | GI50 [7] | GI50 [8] | GI50 [9] | GI50 [10] | GI50 [11] | GI50 [12] | GI50 [13] | GI50 [14] | GI50 [15] | GI50 [16] | GI50 [17] | GI50 [18] | GI50 [19] | GI50 [20]
Cc1c(CCl)c(=O)oc2c(C)c3occ(CCl)c(=O)c3cc12 | > 100 µM (inactive) | 23.4 µM (inactive) | > 100 µM (inactive) | 25.8 µM (inactive) | > 100 µM (inactive) | > 100 µM (inactive) | > 100 µM (inactive) | 24.7 µM (inactive) | > 100 µM (inactive) | > 100 µM (inactive) | > 100 µM (inactive) | > 100 µM (inactive) | 17 µM (inactive) | > 100 µM (inactive) | > 100 µM (inactive) | > 100 µM (inactive) | 15.2 µM (inactive) |  |  | 
N#CCc1nnc(N)o1 | > 100 µM (inactive) | > 100 µM (inactive) | > 100 µM (inactive) | > 100 µM (inactive) |  | > 100 µM (inactive) | > 100 µM (inactive) | > 100 µM (inactive) | > 100 µM (inactive) |  | > 100 µM (inactive) |  | > 100 µM (inactive) | > 100 µM (inactive) |  | > 100 µM (inactive) | > 100 µM (inactive) | > 100 µM (inactive) |  | 
C=C1C[C@]23CCC4C(C)(C)C(=O)CC[C@]4(C)C2C[C@H]1C(O)C3=O (stereo not given in full) | > 75 µM (inactive) | > 75 µM (inactive) | > 75 µM (inactive) | > 75 µM (inactive) |  | > 75 µM (inactive) | > 75 µM (inactive) | > 75 µM (inactive) | > 75 µM (inactive) | > 75 µM (inactive) | > 75 µM (inactive) | > 75 µM (inactive) | > 75 µM (inactive) | > 75 µM (inactive) | > 75 µM (inactive) | > 75 µM (inactive) | > 75 µM (inactive) |  | > 75 µM (inactive) | 
CCN1CCC(O)(c2ccc(OC)cc2)C(C(=O)c2ccc(OC)cc2)C1 (stereo not given) | 20.6 µM (inactive) | 20 µM (inactive) | > 100 µM (inactive) | 28.6 µM (inactive) | 18.4 µM (inactive) | 16.7 µM (inactive) | 20.5 µM (inactive) | 20.6 µM (inactive) | 10.8 µM (inactive) | 22.3 µM (inactive) | 18.1 µM (inactive) | > 10 µM (inactive) | 15.7 µM (inactive) | 30.5 µM (inactive) | > 100 µM (inactive) | 13.3 µM (inactive) | 20 µM (inactive) |  | 17.7 µM (inactive) | 
CC#Cc1c(C#CC)c(OC)c2c(c1OC)C(=O)c1ccccc1C2=O | > 100 µM (inactive) | > 100 µM (inactive) | 13.3 µM (inactive) | 20.3 µM (inactive) | > 100 µM (inactive) | 21.4 µM (inactive) | > 100 µM (inactive) | 25.7 µM (inactive) | > 100 µM (inactive) | 66.5 µM (inactive) | 88.3 µM (inactive) | 33.1 µM (inactive) | 33.6 µM (inactive) | 45.7 µM (inactive) | 17.3 µM (inactive) | 23.3 µM (inactive) | 54.2 µM (inactive) |  | > 100 µM (inactive) | 
CCCCC/C=C1\CCC(CN(C)C)C1=O (stereo not given) | 16.3 µM (inactive) | 14.7 µM (inactive) | 20 µM (inactive) | 19.5 µM (inactive) | 18.6 µM (inactive) | 8.2 µM (inactive) | 4.8 µM (inactive) | 19.1 µM (inactive) | 3.76 µM (inactive) | > 21.5 µM (inactive) | 34.1 µM (inactive) |  | 14.1 µM (inactive) | 26 µM (inactive) | 17.7 µM (inactive) | 2.71 µM (inactive) | 1.82 µM (inactive) | 11.5 µM (inactive) | 20.1 µM (inactive) | 
C/C=C(/C)C(=O)O[C@H]1C(C)=C[C@]23C(=O)[C@@H](C=C(COC(C)=O)[C@@H](O)[C@]12O)[C@H]1[C@@H](C[C@H]3C)[C@@]1(C)OC(=O)/C(C)=C\C | 3.63 µM (inactive) | 1.69 µM (inactive) | 1.08 µM (active) | 3.01 µM (inactive) | 3.15 µM (inactive) | 2.45 µM (inactive) | 1.32 µM (inactive) | 0.655 µM (active) | 2.55 µM (inactive) | 3.72 µM (inactive) | 0.15 µM (active) | 2.72 µM (inactive) | 2.29 µM (inactive) | 2.9 µM (inactive) | 2.37 µM (inactive) | 1.52 µM (inactive) |  | 1.25 µM (inactive) | 2.77 µM (inactive) | 2.13 µM (inactive)
CCc1nc2cc(F)ccc2[nH]c1=O | > 100 µM (inactive) | > 100 µM (inactive) | > 100 µM (inactive) | > 100 µM (inactive) | > 100 µM (inactive) | > 100 µM (inactive) | > 100 µM (inactive) | > 100 µM (inactive) | > 100 µM (inactive) | > 100 µM (inactive) | > 100 µM (inactive) | 22.4 µM (inactive) | > 100 µM (inactive) | 2.34 µM (inactive) | > 100 µM (inactive) | > 100 µM (inactive) |  | > 100 µM (inactive) | > 100 µM (inactive) | > 100 µM (inactive)
CC(O)C1(CNc2cc(Cl)nc(N)n2)CCCC1 (stereo not given) | > 100 µM (inactive) | > 100 µM (inactive) | > 100 µM (inactive) | > 100 µM (inactive) | > 100 µM (inactive) | > 100 µM (inactive) | > 100 µM (inactive) | > 100 µM (inactive) | > 100 µM (inactive) | > 100 µM (inactive) | > 100 µM (inactive) | > 100 µM (inactive) | > 100 µM (inactive) | > 100 µM (inactive) | > 100 µM (inactive) | > 100 µM (inactive) |  | 98.9 µM (inactive) | 75.3 µM (inactive) | > 100 µM (inactive)
CC(C)(C)OC1=C(OC(C)(C)C)C(O)(c2ccc(Cl)cc2)C1=O (stereo not given) |  | > 100 µM (inactive) | > 100 µM (inactive) | > 100 µM (inactive) | > 100 µM (inactive) | > 100 µM (inactive) | > 100 µM (inactive) | > 100 µM (inactive) | > 100 µM (inactive) | > 100 µM (inactive) | > 100 µM (inactive) | > 100 µM (inactive) | > 100 µM (inactive) | > 100 µM (inactive) |  | > 100 µM (inactive) | > 100 µM (inactive) |  | > 100 µM (inactive) | 
O=C(O)CN1CCNCCN(CC(=O)O)CCNCC1 | > 73.3 µM (inactive) | > 100 µM (inactive) | > 87.7 µM (inactive) | > 100 µM (inactive) | > 85.1 µM (inactive) | 9.06 µM (inactive) | 5.75 µM (inactive) | > 100 µM (inactive) | 4.2 µM (inactive) | 42.3 µM (inactive) | 5.57 µM (inactive) | 50 µM (inactive) | > 100 µM (inactive) | > 60.3 µM (inactive) | > 100 µM (inactive) | > 42.2 µM (inactive) |  | 82.4 µM (inactive) | > 100 µM (inactive) | 33 µM (inactive)
O=C(CCC=C(S(=O)(=O)c1ccccc1)S(=O)(=O)c1ccccc1)c1ccccc1 | 8.91 µM (inactive) | 3.26 µM (inactive) | 22.5 µM (inactive) | 13.6 µM (inactive) | 10.7 µM (inactive) | 4.03 µM (inactive) | 10.9 µM (inactive) | 4.59 µM (inactive) | 3.4 µM (inactive) | 4.58 µM (inactive) | 17.1 µM (inactive) | 17.3 µM (inactive) | 7.1 µM (inactive) | 12.7 µM (inactive) | 16.8 µM (inactive) | 3.21 µM (inactive) |  | 14.5 µM (inactive) | 9.33 µM (inactive) | 5.25 µM (inactive)
CC(C)(C)C#CI1OC(=O)c2ccccc21 | 6.05 µM (inactive) | 5.2 µM (inactive) | 14.3 µM (inactive) | 9.27 µM (inactive) | 7.67 µM (inactive) | 4.84 µM (inactive) | 6.85 µM (inactive) | 4.34 µM (inactive) | 3.44 µM (inactive) | 4.36 µM (inactive) | 8.49 µM (inactive) | 6.07 µM (inactive) | 3.31 µM (inactive) | 4.89 µM (inactive) | 10 µM (inactive) | 3.37 µM (inactive) |  | 1.72 µM (inactive) | 2.72 µM (inactive) | 3.72 µM (inactive)
Brc1ccc(-c2ccc(-c3ccc(Br)s3)s2)s1 | > 100 µM (inactive) | > 100 µM (inactive) | > 100 µM (inactive) | > 100 µM (inactive) | > 100 µM (inactive) | > 100 µM (inactive) | > 100 µM (inactive) | > 100 µM (inactive) | > 100 µM (inactive) | > 100 µM (inactive) | > 100 µM (inactive) | > 100 µM (inactive) | > 100 µM (inactive) | > 100 µM (inactive) | > 100 µM (inactive) | > 100 µM (inactive) |  | > 100 µM (inactive) | > 100 µM (inactive) | > 100 µM (inactive)
Cc1cc2nnc(C(N)=O)c(N)c2cc1C | > 100 µM (inactive) | > 100 µM (inactive) | > 100 µM (inactive) | > 100 µM (inactive) | > 100 µM (inactive) | > 100 µM (inactive) | > 100 µM (inactive) | 30.1 µM (inactive) | > 100 µM (inactive) | 47.8 µM (inactive) | > 100 µM (inactive) | > 100 µM (inactive) | > 100 µM (inactive) | > 100 µM (inactive) | 39.8 µM (inactive) | 29.1 µM (inactive) |  | 26.2 µM (inactive) | > 100 µM (inactive) | > 100 µM (inactive)
